In ChEMBL document CHEMBL3046751, “Effects of Pyridalyl on ATP Concentrations in Cultured Sf9 Cells” (J Pestic Sci, 2005):
Calls of active or inactive are those of the source. No cut-off for these calls is given here.

Legend:
Format in all cases: functional, cell-based
Sf9 [1] = test: Reduction of ATP level in Spodoptera frugiperda (fall armyworm) Sf9 cells at 0.1 to 1 uM after 6 to 24 hr by luminescent cell viability assay
Sf9 [2] = test: Increase of ATP level in Spodoptera frugiperda (fall armyworm) Sf9 cells at 10 uM after 6 to 24 hr by luminescent cell viability assay
Sf9 [3] = test: Reduction of ATP level in Spodoptera frugiperda (fall armyworm) Sf9 cells at 0.1 to 10 uM after 4 hr by luminescent cell viability assay
Sf9 [4] = test: Reduction of ATP level in Spodoptera frugiperda (fall armyworm) Sf9 cells after 20 to 24 hr by luminescent cell viability assay
Sf9 [5] = test: Reduction of ATP level in Spodoptera frugiperda (fall armyworm) Sf9 cells at 10 uM after 4 hr by luminescent cell viability assay
Sf9 [6] = test: Cytotoxicity against Spodoptera frugiperda (fall armyworm) Sf9 cells at 0.01 uM
Sf9 [7] = test: Reduction of ATP level in Spodoptera frugiperda (fall armyworm) Sf9 cells at 0.1 uM after 24 hr by luminescent cell viability assay
Sf9 [8] = test: Reduction of ATP level in Spodoptera frugiperda (fall armyworm) Sf9 cells at 0.01 uM after 24 hr by luminescent cell viability assay
Sf9 [9] = test: Reduction of ATP level in Spodoptera frugiperda (fall armyworm) Sf9 cells at 10 uM after 2 hr by luminescent cell viability assay
Sf9 [10] = test: Reduction of ATP level in Spodoptera frugiperda (fall armyworm) Sf9 cells at 1 uM after 8 hr by luminescent cell viability assay
Sf9 [11] = test: Reduction of ATP level in Spodoptera frugiperda (fall armyworm) Sf9 cells at 1 to 10 uM after 20 to 24 hr by luminescent cell viability assay
Sf9 [12] = test: Reduction of ATP level in Spodoptera frugiperda (fall armyworm) Sf9 cells at 0.01 to 10 uM after 4 hr by luminescent cell viability assay
Sf9 [13] = test: Reduction of ATP level in Spodoptera frugiperda (fall armyworm) Sf9 cells at 10 uM after 6 to 24 hr by luminescent cell viability assay
Sf9 [14] = test: Reduction of ATP level in Spodoptera frugiperda (fall armyworm) Sf9 cells at 1 to 10 uM after 4 hr by luminescent cell viability assay

**Q.** How did the Activity (Sf9 [1]) turn out when `COc1ccc(C[C@H]2NC[C@H](O)[C@H]2OC(C)=O)cc1` was run?
**A.** The Activity was “inactive”.

**Q.** What about the Activity (Sf9 [2]) of the same molecule?
**A.** The Activity was “Active”.

**Q.** What does the source list for `N#CC(C#N)=NNc1ccccc1Cl`?
**A.** Activity (Sf9 [3]): Active; Activity (Sf9 [4]): Dose-dependent effect

**Q.** With `CCCCCCCCCCCCC1=C(OC(C)=O)C(=O)c2ccccc2C1=O` as the molecule, how does the Activity (Sf9 [4]) read?
**A.** Its Activity is “Dose-dependent effect”.

**Q.** And the Activity (Sf9 [5])?
**A.** The Activity was “Active”.

**Q.** How did the Activity (Sf9 [6]) turn out when `FC(F)(F)c1ccc(OCCCOc2c(Cl)cc(OCC=C(Cl)Cl)cc2Cl)nc1` was run?
**A.** Its Activity is “inactive”.

**Q.** And the Activity (Sf9 [7])?
**A.** Its Activity is “Active”.

**Q.** And the Activity (Sf9 [8])?
**A.** Its Activity is “inactive”.

**Q.** What about the Activity (Sf9 [9]) of the same molecule?
**A.** Its Activity is “Active”.

**Q.** And the Activity (Sf9 [10])?
**A.** Its Activity is “Active”.

**Q.** And the Activity (Sf9 [11])?
**A.** Its Activity is “Active”.

**Q.** What about the Activity (Sf9 [4]) of the same molecule?
**A.** The Activity was “Dose-dependent effect”.

**Q.** How did the Activity (Sf9 [12]) turn out when `Cc1nn(C)c(Oc2ccccc2)c1/C=N/OCc1ccc(C(=O)OC(C)(C)C)cc1` was run?
**A.** The Activity was “inactive”.

**Q.** With `C=C(C)[C@H]1Cc2c(ccc3c2O[C@@H]2COc4cc(OC)c(OC)cc4[C@@H]2C3=O)O1` as the molecule, how does the Activity (Sf9 [3]) read?
**A.** Its Activity is “inactive”.

**Q.** With `O=c1[nH]cc(F)c(=O)[nH]1` as the molecule, how does the Activity (Sf9 [13]) read?
**A.** Its Activity is “inactive”.

**Q.** What does the source list for `CCOCn1c(-c2ccc(Cl)cc2)c(C#N)c(Br)c1C(F)(F)F`?
**A.** Activity (Sf9 [4]): Dose-dependent effect; Activity (Sf9 [14]): Active
